The test system of experiment [1] is ACE. The conditions noted are these: peony seed peptides, VLSGF vs HWS; cited from earlier work.
The target of experiment [2] is Angiotensin-converting enzyme (ACE) (Homo sapiens, UniProt P12821). Nature of the experiment: ACE inhibition, Cushman & Cheung method with slight modifications (HHL substrate). In kind it is biochemical. The source says: Characterization of Novel Angiotensin-Converting Enzyme Inhibitory Peptides Camila Innocente-Alves1,2, Sara Luísa Sulzbach1, Emerson Gonçalves Moreira3, Raul Izidoro Carneiro3, Lucélia Santi1,2,3, Hugo Verli2,3, Walter Orlando Beys-da-Silva1,2,3* 1 Faculdade de Farmácia, Universidade Federal do Rio Grande do Sul, Porto Alegre, Brasil 2 Programa de Pós-Graduação em Biologia Celular e Molecular, Universidade Federal do Rio Grande do Sul, Porto Alegre, Brasil
3 Centro de Biotecnologia (CBiot), Universidade Federal do Rio Grande do Sul, Porto Alegre,
* corresponding author: walter.beys@ufrgs.br
Selection of the bioactive peptides
The peptides were selected from a previous virtual screening performed against our chemical library (PepDB), and evaluated in vitro for its antihypertensive potential. The structures of the peptides, […] […]
PyRosetta. […] The molecular docking result was evaluated usin g the Protein-Ligand Interaction Profile (PLIP) tool ( https://plip-tool.biotec.tu-dresden.de/) for characterization of the interactions and PyMOL ( https://www.pymol.org/) visualization. […]
The peptides were synthesized by AminoTech ( São Paulo, Brazil). […] The ability of the peptides to inhibit ACE activity was evaluated by the Cushman & Cheung method with slight modifications. Absorbances were read at 228 nm (Spectramax M2, Molecular Devices) and ACE inhibition was expressed as percentage of inhibition. […]

For experiment [3], the system named is ACE C-domain and N-domain. The arrangement: method as in 2 sources, one per row (each row's own in cited_ref): ref 22 (probable, citation mark not shown) ||| ref 20 (probable, citation mark not shown). As to conditions: C-domain vs N-domain; ref 22 (probable, citation mark not shown); cited from earlier work. The source says:
Both drugs are tripeptides-analogues and present a proline-like C-terminal extremity to interact with the S2′ pocket of ACE, which is composed of Gln281, Tyr520, Lys511, His513, and His353. […] Captopril presents a smaller structure with a sulfhydryl group at the N-terminal to interact with the zinc ion.

Where two headings read alike, the source gives them in different places. Where no end group is shown, it is not given here.

Consider four compounds from paper PMC12703502, “Characterization of Novel Angiotensin-Converting Enzyme Inhibitory Peptides” (ACS Medicinal Chemistry Letters, 2025).

Angiotensin-converting enzyme (ACE), sequence (P12821 30-1306, species assumed): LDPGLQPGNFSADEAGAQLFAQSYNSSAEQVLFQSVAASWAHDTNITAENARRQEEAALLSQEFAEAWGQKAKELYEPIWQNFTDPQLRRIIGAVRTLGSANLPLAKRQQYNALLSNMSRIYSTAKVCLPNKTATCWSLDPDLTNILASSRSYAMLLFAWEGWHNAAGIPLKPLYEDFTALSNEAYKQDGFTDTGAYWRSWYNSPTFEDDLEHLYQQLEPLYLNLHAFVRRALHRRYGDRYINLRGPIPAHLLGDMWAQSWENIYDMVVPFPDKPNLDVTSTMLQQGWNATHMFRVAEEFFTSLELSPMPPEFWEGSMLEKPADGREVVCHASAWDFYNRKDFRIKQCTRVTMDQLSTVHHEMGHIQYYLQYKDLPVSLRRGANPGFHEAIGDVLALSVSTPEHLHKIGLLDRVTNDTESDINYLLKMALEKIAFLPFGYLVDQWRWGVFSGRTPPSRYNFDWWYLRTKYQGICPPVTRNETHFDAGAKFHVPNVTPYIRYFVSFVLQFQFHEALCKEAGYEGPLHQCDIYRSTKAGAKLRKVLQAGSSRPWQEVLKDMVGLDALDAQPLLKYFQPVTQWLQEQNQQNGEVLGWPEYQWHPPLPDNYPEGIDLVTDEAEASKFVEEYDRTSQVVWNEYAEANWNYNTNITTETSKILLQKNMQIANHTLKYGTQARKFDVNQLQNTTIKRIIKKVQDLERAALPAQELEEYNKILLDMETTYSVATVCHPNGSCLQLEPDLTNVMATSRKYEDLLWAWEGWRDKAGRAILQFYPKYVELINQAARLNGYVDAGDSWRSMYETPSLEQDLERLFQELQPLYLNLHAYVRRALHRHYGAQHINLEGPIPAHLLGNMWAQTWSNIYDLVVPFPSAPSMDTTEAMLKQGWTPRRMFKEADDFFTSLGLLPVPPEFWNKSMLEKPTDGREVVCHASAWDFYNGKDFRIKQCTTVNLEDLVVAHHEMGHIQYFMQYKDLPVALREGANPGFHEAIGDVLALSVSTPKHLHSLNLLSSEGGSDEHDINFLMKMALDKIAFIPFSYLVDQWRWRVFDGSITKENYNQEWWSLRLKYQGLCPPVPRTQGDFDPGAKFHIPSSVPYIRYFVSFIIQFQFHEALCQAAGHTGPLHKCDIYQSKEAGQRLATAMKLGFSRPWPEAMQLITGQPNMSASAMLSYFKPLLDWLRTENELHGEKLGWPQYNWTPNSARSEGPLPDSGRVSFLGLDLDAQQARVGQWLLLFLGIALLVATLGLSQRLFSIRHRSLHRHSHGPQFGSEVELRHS

In the case of VLSGF, in experiment [1], the “relative IC50” value is on record as “lower IC50”.
In general, IC50 refers to the midpoint of a concentration-inhibition curve. VWTNCYHLYPAH [PepDB_AHP4] came in with a concentration for half-maximal inhibition (IC50) in experiment [2] of 88.6 µM.
Turning to `NCCCC[C@H](N[C@@H](CCc1ccccc1)C(=O)O)C(=O)N1CCC[C@H]1C(=O)O` [Lisinopril], the “affinity to ACE domains” value in experiment [3] is given as “higher affinity to the C-domain”.
Consider MSFLEHFLELK [PepDB_AHP1], for which the half-maximal inhibitory concentration (IC50) in experiment [2] (Cushman & Cheung method, HHL substrate, absorbance 228 nm, at least triplicates, nonlinear regression GraphPad Prism 8.0.1, read-out: IC50) worked out at 331 µM.
